Results as given in PMC5469750, “Antibacterial and detoxifying activity of NZ17074 analogues with multi-layers of selective antimicrobial actions against Escherichia coli and Salmonella enteritidis” (Scientific Reports, 2017).
Bridges are numbered along the chain shown (N, C = ends). Where no end group is shown, it is not given here.

Experiments:
[1] = system: E. coli CICC21530 (serotype O157:H7); type: cell-based, Escherichia coli; details: microbroth dilution, MH medium, 1 × 10^5 CFU/ml, 37 °C, 18–24 h; representative of three independent experiments
Protocol: (§1) The antimicrobial activity of peptides was determined by the microbroth dilution method. The bacterial strains were incubated in Mueller-Hinton (MH) medium at 37 °C overnight until the mid-log phase (OD600 nm reading of 0.5). Bacteria were diluted to 1 × 10^5 CFU/ml and added into 96-well plates, followed by the addition of serial dilutions of peptides (from 0.0625 to 128 μg/ml). The plates were incubated at 37 °C for 18–24 h. The MIC value was determined as the lowest peptide concentration at which no bacterial growth was observed. All tests were conducted in triplicate.

[2] = system: E. coli CVCC1515; type: cell-based, Escherichia coli; details: microbroth dilution, MH medium, 1 × 10^5 CFU/ml, 37 °C, 18–24 h; representative of three independent experiments
Protocol: as §1

[3] = system: S. enteritidis CVCC3377; type: cell-based, Salmonella enteritidis; details: microbroth dilution, MH medium, 1 × 10^5 CFU/ml, 37 °C, 18–24 h; representative of three independent experiments
Protocol: as §1

[4] = system: Bacillus subtilis ATCC6633; type: cell-based; details: microbroth dilution, MH medium, 1 × 10^5 CFU/ml, 37 °C, 18–24 h; representative of three independent experiments
Protocol: as §1

[5] = system: Enterococcus faecium CMCC1.2136; type: cell-based; details: microbroth dilution, MH medium, 1 × 10^5 CFU/ml, 37 °C, 18–24 h; representative of three independent experiments
Protocol: as §1

[6] = system: Escherichia coli CVCC195; type: cell-based; details: microbroth dilution, MH medium, 1 × 10^5 CFU/ml, 37 °C, 18–24 h; representative of three independent experiments
Protocol: as §1

[7] = system: Listeria ivanovii ATCC19119; type: cell-based; details: microbroth dilution, MH medium, 1 × 10^5 CFU/ml, 37 °C, 18–24 h; representative of three independent experiments
Protocol: as §1

[8] = system: Pseudomonas aeruginosa CICC10419; type: cell-based; details: microbroth dilution, MH medium, 1 × 10^5 CFU/ml, 37 °C, 18–24 h; representative of three independent experiments
Protocol: as §1

[9] = system: S. choleraesuis CVCC503; type: cell-based; details: microbroth dilution, MH medium, 1 × 10^5 CFU/ml, 37 °C, 18–24 h; representative of three independent experiments
Protocol: as §1

[10] = system: S. pullorum CVCC1789; type: cell-based; details: microbroth dilution, MH medium, 1 × 10^5 CFU/ml, 37 °C, 18–24 h; representative of three independent experiments
Protocol: as §1

[11] = system: S. pullorum CVCC1802; type: cell-based; details: microbroth dilution, MH medium, 1 × 10^5 CFU/ml, 37 °C, 18–24 h; representative of three independent experiments
Protocol: as §1

[12] = system: S. suis CVCC606; type: cell-based; details: microbroth dilution, MH medium, 1 × 10^5 CFU/ml, 37 °C, 18–24 h; representative of three independent experiments
Protocol: as §1

[13] = system: Salmonella typhimurium ATCC14028; type: cell-based; details: microbroth dilution, MH medium, 1 × 10^5 CFU/ml, 37 °C, 18–24 h; representative of three independent experiments
Protocol: as §1

[14] = system: Staphylococcus aureus ATCC43300; type: cell-based; details: microbroth dilution, MH medium, 1 × 10^5 CFU/ml, 37 °C, 18–24 h; representative of three independent experiments
Protocol: as §1

[15] = system: P. aeruginosa CICC21630; type: cell-based, Pseudomonas aeruginosa; details: microbroth dilution, MH medium, 1 × 10^5 CFU/ml, 37 °C, 18–24 h; representative of three independent experiments
Protocol: as §1

[16] = system: S. aureus ATCC25923; type: cell-based, Staphylococcus aureus; details: microbroth dilution, MH medium, 1 × 10^5 CFU/ml, 37 °C, 18–24 h; representative of three independent experiments
Protocol: as §1

[17] = system: Candida albicans CGMCC2.2411; type: cell-based; details: microbroth dilution, MH medium, 1 × 10^5 CFU/ml, 37 °C, 18–24 h; representative of three independent experiments
[18] = Calcein leakage from model eukaryotic membranes; type: biochemical; details: POPC/cholesterol = 1:1 LUVs (500 μM lipid), 64 to 256 μg/ml, 5 min; 100% = 1% Triton X-100; n = 3
Protocol: Different lipids (Avanti Polar Linpids, Inc.) were used to prepare model membranes composed of POPC/ POPG (4:1 molar ratio) and POPC/cholesterol (1:1) by the extrusion method as previously described. POPC/POPG and POPC/cholesterol LUVs were used to mimic gram-negative bacterial and eukaryotic membranes, respectively. […] After incubation for 5 min, the fluorescence (F) (λexcitation = 492 nm, λemission = 518 nm) was measured on a microplate reader.

[19] = LPS binding, BODIPY-TR-cadaverine (BC) displacement; details: 100 μM; 40 μg/ml LPS and 10 μM BC in 50 mM Tris buffer pH 7.4, 1 h, room temperature
Protocol: Equal volumes of 40 μg/ml LPS and 10 μM BC in 50 mM Tris buffer (pH 7.4) were mixed, added into 96-well plates and incubated in the dark for 4 h at room temperature. […] Fluorescence was then measured using a microplate reader (excitation/emission, 580/620 nm). The occupancy rate was calculated by the following equation: BC displacement rate (%) = (1 − (F0 − F)/(F0 − Fmax)) × 100, wherein F0 is the fluorescence intensity of the solution of BC alone; Fmax is the fluorescence intensity in the presence of LPS at the saturation concentration, and F is the intensity of LPS:BC mixtures at varying displacer concentrations.

[20] = system: murine erythrocytes; set-up: method as in PMID 24816779; details: 128 μg/ml; parent peptide; cited from earlier work
[21] = system: E. coli CVCC1515; assay: E. coli-induced peritonitis model, survival; type: in vivo, ICR mice; details: 7 days, six mice per group
Protocol: (§2) Mice injected with only bacteria or saline served as negative (untreated) or blank (unchallenged) controls, respectively. Survival of mice was recorded every 12 h and followed for 7 days.

[22] = system: S. enteritidis CICC22956; assay: S. enteritidis-induced peritonitis model, survival; type: in vivo, ICR mice; details: 7 days, six mice per group
Protocol: as §2

[23] = system: E. coli 0111:B4 LPS; assay: LPS-induced endotoxemia model, survival; type: in vivo, C57BL/6 mice; details: 7 days, six mice per group
Protocol: Eight-week-old SPF male C57BL/6 mice (20 g ± 5 g, six mice per group) were injected intraperitoneally with E. coli 0111:B4 LPS (30 mg/kg body weight, Sigma). […] Mice injected with PBS were used as the negative control. The mouse survival rate was recorded for 7 days.

[24] = system: IL-1β; assay: LPS-induced cytokine release, serum ELISA; type: in vivo, C57BL/6 mice; details: 15 mg/kg intraperitoneal 0.5 h after 10 mg/kg LPS; LPS control 292.9; mean, n = 3 per group
Protocol: (§3) Blood was collected in a heparin sodium tube at 2 h or 8 h after LPS injection and incubated for 30 min at 37 °C and then overnight at 4 °C. After centrifugation at 3,000 rpm for 10 min at 4 °C, serum was collected from supernatant. The cytokine levels of TNF-α, IL-6 and IL-1β were detected by the Jiaxuan Biotech. Co. Ltd. (Beijing, China) using an enzyme linked immunosorbent assay (ELISA).

[25] = system: IL-6; assay: LPS-induced cytokine release, serum ELISA; type: in vivo, C57BL/6 mice; details: 15 mg/kg intraperitoneal 0.5 h after 10 mg/kg LPS; LPS control 1026.8; mean, n = 3 per group
Protocol: as §3

[26] = system: TNF-α; assay: LPS-induced cytokine release, serum ELISA; type: in vivo, C57BL/6 mice; details: 15 mg/kg intraperitoneal 0.5 h after 10 mg/kg LPS; LPS control 394.9; mean, n = 3 per group
Protocol: as §3

Substance “GFCWNVCVYRNGVRVCHRRCN (bicyclic or more) (disulfide 7-16, 3-20) [N1, parent marine peptide, variant of arenicin-3 (Tyr5 → Asn, Tyr17 → His) from the lugworm Arenicola marina, reference compound]” has an MIC [1] of 0.5 µg/mL, an MIC [2] of 0.25 µg/mL and an MIC [3] of 0.25 µg/mL. For the same substance, the MIC [4] was 0.25 µg/mL, the MIC [5] was over 16 µg/mL and the MIC [6] was 0.5 to 1 µg/mL. It also gave an MIC [7] of 128 µg/mL, an MIC [8] of 2 µg/mL and an MIC [9] of 0.5 µg/mL. The MIC [10] was 0.25 µg/mL, the MIC [11] was 0.25 µg/mL and the MIC [12] was 16 µg/mL. The MIC [13] was 0.5 µg/mL, the MIC [14] was 16 µg/mL and the MIC [15] was 4 µg/mL. The MIC [16] was 0.5 to 1 µg/mL, the MIC [17] was 16 µg/mL and the calcein dye leakage [18] was 2.5–25.3%. The BC displacement percentage [19] was 79.8% and the hemolysis [20] was 3%.
In the case of polymyxin B [PMB], the calcein dye leakage [18] is reported as 12.3–51.0%, the BC displacement percentage [19] is reported as 89.3% and the survival rate ([21]; 0.31 mg/kg intraperitoneal at 0.5 and 8 h after inoculation) is reported as 66.7%. For the same substance, the survival rate ([21]; 0.625 mg/kg intraperitoneal at 0.5 and 8 h after inoculation) was 100%, the survival rate ([22]; 0.31 mg/kg intraperitoneal at 0.5 h and 8 h after challenge) was 83.3% and the survival rate ([22]; 0.625 mg/kg intraperitoneal at 0.5 h and 8 h after challenge) was 100%. The survival rate ([23]; 10 mg/kg intraperitoneal at 0.5 h and 8 h after LPS (30 mg/kg)) was 16.7%, the survival rate ([23]; 15 mg/kg intraperitoneal at 0.5 h and 8 h after LPS (30 mg/kg)) was 100% and the “serum level of IL-1β” value [24] was 242.8 pg/mL. For the same substance, the “serum level of IL-6” value [25] was 514.9 pg/mL and the “serum level of TNF-α” value [26] was 74.0 pg/mL.
